The text below walks through data of patent US10273208B2, “Screening methods for the binding affinity of chemical entities to biological molecules and NEDD4-1 inhibitors identified by the screening methods” (Northwestern University, priority 2014, dated 2019).

The nature of test [1]: NMR rate studies: pseudo-first order reaction with N-acetylcysteine methyl ester. The format is physicochemical. The conditions noted are these: electrophile 10 mM, N-acetyl cysteine methyl ester 78 mM, 2:1 deuterated PBS:DMSO-d6, pD 8, NMR. From the text:
We further validated the utility of electrophile 3 as a thiol-reactive tether by making a library of one hundred structurally diverse drug-like fragments 6-105 containing this electrophile. The library was constructed with an HBTU amide coupling with commercially available carboxylic acid fragments (FIG. 2A). The acids were selected with “rule of three” criteria^15 and a subsequent diversity analysis. We measured the reaction rates for the first fifty fragments to confirm that this library would have balanced cysteine reactivity and could be used for irreversible tethering (FIG. 2B).
N-Acetyl cysteine methyl ester was dissolved in 2:1 deuterated PBS:DMSO-d6 (78 mM) with 10 mM CH2Cl2 as an internal standard. The electrophile (10 mM) was then added immediately prior to acquiring spectra. H1 spectra were taken every 30 s for 30 min (or every 4 s for 5 min for highly reactive compounds 1c and 2a-c). The integrals of the vinyl peaks were used to determine the concentration of the electrophile over time. The natural logarithm of the concentration of the electrophile versus time was then plotted using GraphPad Prism software. The linear slope of this plot was used to determine the pseudofirst order rate constant. Deuterated PBS recipe: 20 mM Na3PO4, 50 mM NaCl in D2O was adjusted to pD 8 with DC1 solution.

In test [2] the target is T1, human rhinovirus 3C protease (GST-HRV3C, PreScission protease) (Human rhinovirus 14, UniProt P03303).
T1 construct: made in house; host or cells: E. coli Rosetta (DE3)pLysS
T1 sequence (P03303 1538-1719, added parts left off): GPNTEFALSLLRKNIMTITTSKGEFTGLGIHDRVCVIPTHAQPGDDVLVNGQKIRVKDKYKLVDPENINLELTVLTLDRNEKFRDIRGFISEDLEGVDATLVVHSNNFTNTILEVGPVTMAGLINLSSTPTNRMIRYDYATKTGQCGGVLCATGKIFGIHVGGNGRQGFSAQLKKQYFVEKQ
In words: Irreversible tethering counter-screen (ESI-MS) against HRV3C protease. It is filed as binding. The conditions noted are these: mixtures of ten fragments 100 μM each, 1 h. The method, then: FIG. 28A, FIG. 28B, FIG. 28C and FIG. 28D. Counterscreen of compound 6 against the deubiquitinase USPO8 and Human Rhinovirus (HRV) 3C protease, both of which have catalytic cysteines. Compound 6 at 100 μM in 1% DMSO was incubated with the catalytic domain of the indicated cysteine protease (10 μM) for 1 h, followed by gel filtration and whole protein ESI-MS.
To further test the specificity of the developed irreversible tethering system, we conducted a counter-screen of the same set of 100 compounds (10 mixtures of 10 compounds each) against three other enzymes: human rhinovirus 3C protease, the deubiquitinase USP08, and the E2 ubiquitin-conjugating enzyme UbcH7. […] The molecular weight of GST-HRV3C protease is 47566.72 Da and its amino acid sequence is provided as (SEQ ID NO:2).
10 μM of papain (Sigma P4762), UbcH7 (recombinantly expressed) or USPO8 (recombinantly expressed) in 50 mM HEPES 150 mM NaCl 0.1 mM EDTA pH 7.5 was treated with a mixture of ten fragments (Table S2) (10 mM DMSO stock solutions, final concentrations: 100 μM of each fragment, and 1% DMSO). The reaction mixture was incubated for 1 h or 4 h at 23° C. before being passed through Zeba gel filtration columns (Thermo, 7K MWCO) to remove unreacted fragments. The protein solution was then immediately analyzed by whole protein LC/ESI-MS.
Accurate-mass data were obtained on an Agilent 6210A LC-TOF mass spectrometer in positive ion mode using electrospray ionization. Samples were chromatographed on the LC-TOF instrument using a Poroshell 120 EC-C18 HPLC column (2.1*50 mm, 2.7 micron), an Agilent Series 1200 HPLC binary pump, and an Agilent Series 1200 autoinjector. The HPLC column was held at 45° C. and the autosampler was held at 8° C. Mobile Phase A was a solution of 0.1% formic acid in water:acetonitrile (19:1). Mobile Phase B was a solution of 0.1% formic acid in acetonitrile. The flow rate was set to 250 μL/min. The gradient used was 0% B for 2 minutes, ramping linearly to 90% B from 2 minutes to 5 minutes, holding at 90% B from 5 minutes to 7 minutes, and then returning to 0% B at 7.1 minutes. […]
(In general: A counterscreen serves to expose hits that act by an unwanted route or on another target.)

Test [3] concerns the target T2, papain (Carica papaya, UniProt P00784).
T2 construct: purchased Sigma P4762
T2 sequence (P00784 134-345): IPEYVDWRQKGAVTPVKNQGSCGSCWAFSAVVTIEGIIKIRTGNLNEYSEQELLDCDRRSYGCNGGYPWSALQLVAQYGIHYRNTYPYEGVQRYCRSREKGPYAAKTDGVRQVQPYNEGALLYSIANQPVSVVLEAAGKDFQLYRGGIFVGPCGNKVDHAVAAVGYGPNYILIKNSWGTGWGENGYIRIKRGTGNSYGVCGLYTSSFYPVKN
In words: Irreversible tethering screening assay (whole protein ESI-MS) against papain. The format is binding. The method, then: Papain (10 μM) was incubated for one hour with ten reaction mixtures that each contained ten electrophilic fragments (100 μM each) (Table S2).
Hits were defined as any compounds which labeled papain more than 50%. […] Such selectivity is impressive, given a 9-fold excess of other cysteine reactive electrophiles over compounds 6, 7, and 8. […] This is despite the fact that these reaction mixtures contain a 100-fold excess of cysteine reactive electrophiles relative to the highly reactive catalytic cysteine of papain. […]
10 μM of papain (Sigma P4762), UbcH7 (recombinantly expressed) or USPO8 (recombinantly expressed) in 50 mM HEPES 150 mM NaCl 0.1 mM EDTA pH 7.5 was treated with a mixture of ten fragments (Table S2) (10 mM DMSO stock solutions, final concentrations: 100 μM of each fragment, and 1% DMSO). […] The protein solution was then immediately analyzed by whole protein LC/ESI-MS. […]
200 μL of papain and compound 6-8 adducts were prepared separately as described above in “irreversible tethering screening assay” by incubating papain (10 μM) with 100 μM of compounds 6-8 in 1% DMSO 50 mM HEPES 150 mM NaCl 0.1 mM EDTA pH 7.5. […] The cassettes were dialyzed against 500 mL of 50 mM HEPES 150 Mm NaCl 0.1 mM EDTA pH 7.5 for 16 h, then 20 μL were extracted and analyzed by ESI-MS. […]

For a further test, the target named is T3, NEDD4-1 HECT domain (Homo sapiens, UniProt P46934).
T3 construct: to elute NEDD4-1 HECT domain (50 mM HEPES, 150 mM NaCl, 0.1 mM EDTA 1 mM DTT); GST (N, cleaved yes); made in house; host or cells: E. coli BL21
T3 sequence (P46934 with tags, fused parts or gaps): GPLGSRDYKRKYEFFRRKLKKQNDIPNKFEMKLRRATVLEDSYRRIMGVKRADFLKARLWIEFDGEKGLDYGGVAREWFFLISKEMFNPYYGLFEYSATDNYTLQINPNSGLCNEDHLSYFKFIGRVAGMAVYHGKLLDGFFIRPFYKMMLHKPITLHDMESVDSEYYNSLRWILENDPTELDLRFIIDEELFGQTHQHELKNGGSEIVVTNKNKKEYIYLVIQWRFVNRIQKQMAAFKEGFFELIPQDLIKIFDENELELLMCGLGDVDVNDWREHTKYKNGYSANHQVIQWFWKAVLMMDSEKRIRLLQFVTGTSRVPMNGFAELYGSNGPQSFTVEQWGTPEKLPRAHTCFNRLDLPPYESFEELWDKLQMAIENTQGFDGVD
Description: In vitro ubiquitination assays. As to conditions: NEDD4-1 HECT pretreated with 1 mM compound for 3 h, quenched after 5 min. The format is biochemical. The method, then:
FIG. 15A, FIG. 15B and FIG. 15C. (FIG. 15A) Enzymatic assay with compounds 1, 2, and 4. NEDD4-1 HECT domain was pretreated with 1% DMSO (lane 1), or 1 mM of compounds 1 (lane 2), 2 (lane 3), or 4 (lane 4) for 3 h before beginning the assay. The reaction mixtures were quenched after 5 min, and polyubiquitin chains were detected by Western blot with anti-ubiquitin antibody. (FIG. 15B) Cartoon depiction of the crystal structure of NEDD4-1:1 with key side chains and the inhibitor shown as spheres. (FIG. 15C) Close-up view of the inhibitor-binding site with the key side chains depicted as sticks and colored by atom type. The 2FO-FC electron density map (mesh, contoured at 1.0 σ) is presented for Cys^627 and 1.
FIG. 16A, FIG. 16B, FIG. 16C and FIG. 16D. (FIG. 16A) and (FIG. 16B) Compound 6 disrupts the NEDD4-1:Ub interaction as shown by a fluorescence polarization assay. Mean±s.e.m., n=3. (FIG. 16C) Compound 6 inhibits the ability of NEDD4-1 to polyubiquitinate the Wbp2-C-K222 protein substrate. NEDD4-1 was pretreated with 1% DMSO (lane 1), or 100 μM of compound 6 (lane 2) or compound 4 (lane 3) for 1.5 h before beginning the assay. Reaction mixtures were quenched at the indicated times and the amount of ubiquitinated Wbp2-C-K222 was determined using in-gel fluorescence. (FIG. 16D) Quantification of polyubiquitin chains in FIG. 16B. Mean±s.e.m., n=2. […]

The target in test [4] is T2, papain. Description: Papain activity assay (Cbz-Gly-ONp, kinact/KI). It is filed as biochemical. The method, then:
We subsequently tested compounds 6-8 in an enzymatic assay to confirm that they inhibited papain in the concentration and time dependent manner that is characteristic of irreversible inhibitors.^18 Using assay conditions previously described for papain,^17 we determined kinact/K1 values for compounds 6-8 (FIGS. 4 and 10).
Papain (4.8 μM) in 50 mM Na3PO4 2 mM EDTA was preactivated with 1 mM DTT for 30 min. Activated papain (3.84 μM) in 4:1 mixture of 50 mM Na3PO4, 2 mM EDTA at pH 6.2 and acetronitrile was then preincubated for 1 h with varying concentrations of the electrophilic fragment. Every 10 min, 10 μL of the reaction mixture was added to a well of 96-well plate containing 100 μL of 4:1 50 mM Na3PO4 2 mM EDTA pH 6.2:acetronitrile with 400 μM Cbz-Gly-ONp. p-Nitrophenol product formation was monitored by absorbance at 340 nm (£: 6800 M-1 cm-1) with a Biotek Synergy 4 plate reader. All reactions were performed in duplicate. Product concentration versus time was plotted with GraphPad Prism software and the initial slope was calculated to determine enzymatic activity (E). The values of kinact/KI for each inhibitor were then determined according to the method of Kitz and Wilson.23 Briefly, the slopes of the plots of ln(100*Einhibited/Euninhibited) vs. time were used to determine the pseudo-first order inhibition constant kobs for a given concentration of a given inhibitor. […]

Regarding `COC(=O)/C=C/CNC(=O)c1csc(-c2cccs2)n1` [Compound 22], the k pseudo-first order in test [1] worked out at 0.0007605 s⁻¹. In addition, the “labeling of HRV3C protease” value in test [2] was around 35%.

In the case of `COC(=O)/C=C/CNC(=O)c1cc2cc(Cl)cc(OC)c2o1` [Compound 98], the “labeling of HRV3C protease” value in test [2] is around 20%.

Turning to `COC(=O)/C=C/CNC(=O)[C@H](Cc1ccccc1)NC(C)=O` [Compound 106, reference compound], at papain [3] (100 μM 106 for 1 h, then 100 μM of 6, 7 or 8), the “effect of pretreatment of papain on subsequent labeling by compounds 6-8” value is recorded as “blocked subsequent labeling by compounds 6-8”.

In turn, `COC(=O)/C=C/CNC(=O)c1ccc2ccccc2n1` [Compound 32] displayed a k pseudo-first order in test [1] of 0.0006296 s⁻¹. Moreover, the “labeling of HRV3C protease” value in test [2] was around 20%.

With `COC(=O)/C=C/CNC(=O)c1c[nH]nc1-c1cccc(F)c1` [Compound 4, Methyl(E)-4-(3-(3-fluorophenyl)-1H-pyrazole-4-carboxamido)but-2-enoate], the “polyubiquitin chain assembly by NEDD4-1 (anti-ubiquitin Western blot)” value on NEDD4-1 HECT domain is “did not affect NEDD4-1 activity”.

For `COC(=O)/C=C/CNC(=O)c1ccc(C2CCCO2)s1` (centres unmarked) [Compound 19], the k pseudo-first order in test [1] amounted to 0.0004396 s⁻¹. In addition, on papain [4], the “fold less potent at inhibiting papain than the least potent inhibitor 6” value is listed as around 10 fold and the “fold less potent at inhibiting papain than the most potent inhibitor 7” value is given as around 33 fold. On papain [3] (papain 10 μM, mixtures of ten fragments 100 μM each, 1 h, hit = labeled papain more than 50%), the “covalent labeling of papain” value was “did not label papain”.
